Results taken from patent US6077822A, “Drug salts” (Dumex-Alpharma A/S, priority 1993, dated 2000).

Tests used:
[1] = increased gastric pH; cited from earlier work
[2] = cited from earlier work
[3] = dissolution, paddle method USP XXII apparatus II; assay type: physicochemical; settings: 900 ml 0.1 N HCl; tablet with 150 mg salt; 5-60 minutes; FIG. 1
Description: The paddle method is used in accordance with USP XXII, p. 1579, (apparatus II), with 900 ml 0.1 N HCl. […] Samples are taken after 5, 10, 20, 30 and 60 minutes and diluted.
The samples are analyzed spectrophotometrically at 345.9 nm in a Shimadzu 160 A photometer.

Molecule	effect of increased pH of the stomach on bioavailability / dissociation and absorption [1]	patients spontaneously reporting nausea and vomiting ([2]; 24/373 patients)	patients reporting nausea and vomiting after questioning ([2]; 35/113 patients)	frequency of nausea and vomiting relative to other antibiotics ([2]; in vivo)	release versus time compared with Vibramycin [3]
CCO.C[C@H]1c2cccc(O)c2C(=O)C2=C(O)[C@]3(O)C(=O)C(C(N)=O)=C(O)[C@@H](N(C)C)[C@@H]3[C@@H](O)[C@@H]21.C[C@H]1c2cccc(O)c2C(=O)C2=C(O)[C@]3(O)C(=O)C(C(N)=O)=C(O)[C@@H](N(C)C)[C@@H]3[C@@H](O)[C@@H]21.Cl.Cl.O [doxycyclin hyclate, doxycyclin hydrochloride (hyclate)]	independent of pH	6.4%	31%	3 fold	
C[C@H]1c2cccc(O)c2C(=O)C2=C(O)[C@]3(O)C(=O)C(C(N)=O)=C(O)[C@@H](N(C)C)[C@@H]3[C@@H](O)[C@@H]21.O [doxycyclin monohydrate]	decreases the bioavailability				
Doxycyclin Sucrose-octa-O-sulphonic Acid Salt [Example 2]					delayed release characteristics are similar
